From patent US9079891B2, “Compounds that modulate intracellular calcium” (CALCIMEDICA, INC., priority 2010, dated 2015) come the findings set out here.

Like-named read-outs stand apart in the source and are kept apart here. Some results are limits rather than exact numbers.

One test relates to RBL-2H3 cells. Nature of the test: Fluorescence-based assay of store-operated calcium entry in RBL-2H3 cells (FLIPR, thapsigargin). Particulars: Fluo-4, Upslope 0-7 sec, read-out: FLIPR_CRAC: 9 pt CRC - Fluo4_TG-D: RBL-2H3: IC50: Upslope 0-7 sec. Type of test: cell-based, rat. As for the experimental part: B. Fluorescence-Based Assay of Store-Operated Calcium Entry in RBL-2H3 Cells.
RBL-2H3 cells are obtained from ATCC and maintained in complete medium with 10% FBS at 37° C./6% CO2.
The day prior to performing the assay, RBL-2H3 cells are plated in 50 μl of complete medium in a 384 well plate. Cells are grown at 37° C./6% CO2 overnight and grow to 50-60% confluence by the next day. On the assay day, 1.5 μM Fluo-4-AM dye (Invitrogen) in complete medium is added and incubated for 1 hour at RT. Cells are washed twice in Ca^2+-free HBSS buffer and 35 μl Ca^2+-free HBSS buffer is added to each well. 10 μl of a test compound prepared in a Ca^2+-free HBSS solution at 4.5× of the desired concentration is added to a well and incubated for 5 minutes at RT. 10 μl of thapsigargin prepared in a Ca^2+-free HBSS solution at 5.5× of the desired concentration (5.5 uM) is added to each well and incubated for an additional 25 minutes. The initial baseline fluorescence signal is measured with a FLIPR^384 (Molecular Devices) plate reader. 5 μl of 12× calcium in HBSS (12 mM) is added and changes in cellular fluorescence are measured with the FLIPR^384 plate reader. In each well, the change in the fluorescent signal as a function of time due to calcium entry into the cell is determined by calculating the difference between the fluorescent signal measured 7 seconds after calcium addition and the initial baseline fluorescence signal at time zero (t=0). This parameter is designated Upslope. The IC50 value is calculated as the concentration at which 50% of the Upslope is inhibited.

Test [1] concerns the target T1, recombinant human STIM1 and Orai1 (Homo sapiens, UniProt Q96D31).
T1 construct: c-myc (C); expressed in transfected cells; host or cells: HEK-293 cells stably expressing human STIM1 and human Orai1
Nature of the test: Fluorescence-based assay of store-operated calcium entry in Orai1/STIM1 stable cells (FLIPR). Type of test: cell-based. The note with it: for IC50: HEK-293 cells stably expressing human Orai1/STIM1, Fluo-4, Peak-Basal signal, read-out: FLIPR_CRAC: 9 point CRC: O1S1_JR251: IC50: Peak_over_Basal; for FLIPR_CRAC: 9 point CRC: O1S1_JR251: efficacy: printed in the IC50 column in place of a class symbol. The method, then:
A. Fluorescence-Based Assay of Store-Operated Calcium Entry in Orai1/Stim1 Stable Cells.
Cells stably expressing recombinant human STIM1 and Orai1 are generated by transfecting a human Orai1 expression plasmid (pcDNA3.1-Orai1-cmyc) into HEK-293 cells stably overexpressing human STIM1 (Roos et al. 2005 JCB 169(3): 435-445). Colonies of cells stably expressing both STIM1 and Orai1 proteins are selected and then subcloned by limiting dilution. Cells were cultured at 37° C./6% CO2 in complete medium with 10% FBS and appropriate selection markers.
The day prior to performing the assay Orai1/STIM1 stable cells are plated in 50 μL of complete medium at 90-95% confluence in a 384 well plate. Cells are grown at 37° C./6% CO2 overnight. On the day of the assay, 1.5 μM fluo-4-AM (Invitrogen) in complete medium is added to the cells, which are then incubated for 1 hour at RT. Cells are washed once in Ca^2+-free HBSS (Hank's buffered saline solution) and 35 μl of Ca^2+-free HBSS is added to each well. Test compounds are added to wells in a 10 μL Ca^2+-free HBSS solution, prepared at 4.5× the desired final concentration, and incubated for 30 minutes at RT. The initial baseline fluorescence signal is then measured with a FLIPR^384 (Molecular Devices) plate reader. Calcium entry is initiated by adding 5 μl of 10×CaCl2 (10 mM) in HBSS, and changes in cellular fluorescence are measured with the FLIPR^384 plate reader. In each well, the magnitude of the fluorescence signal as a result of calcium entry into the cell is determined by calculating the difference between the peak fluorescence signal measured after calcium addition and the initial baseline fluorescence signal (designated Peak-Basal). IC50 values are typically calculated as the concentration that inhibited 50% of the Peak-Basal signal.

T1 sequence (Q96D31 whole entry): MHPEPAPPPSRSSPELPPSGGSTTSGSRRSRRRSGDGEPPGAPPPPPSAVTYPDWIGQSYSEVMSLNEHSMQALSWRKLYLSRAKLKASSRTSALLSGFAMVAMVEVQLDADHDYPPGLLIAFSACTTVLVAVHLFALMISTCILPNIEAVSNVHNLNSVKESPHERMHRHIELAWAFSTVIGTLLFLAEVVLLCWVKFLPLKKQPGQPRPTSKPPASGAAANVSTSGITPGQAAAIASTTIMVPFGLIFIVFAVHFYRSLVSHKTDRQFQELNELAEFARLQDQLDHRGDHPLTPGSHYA

One may read the IC50 as the concentration that inhibits the measured activity by half. Turning to `O=C(Nc1ccccc1Cl)c1ccc(-c2cc3scnc3cc2Cl)s1` [Example 8, N-(2-chlorophenyl)[5-(5-chlorobenzothiazol-6-yl)(2-thienyl)]carboxamide], the IC50 in the test with RBL-2H3 cells (Rattus norvegicus) was less than 600 nM; in test [1], 600 to 1200 nM. The matching figures for `Cc1cc2cnn(C)c2cc1-c1ccc(C(=O)Nc2ccccc2F)s1` [Example 12]: less than 600 nM and 600 to 1200 nM.

As to `Cc1cc2cn(C)nc2cc1-c1ccc(C(=O)Nc2ccccc2Cl)s1` [Example 14], the results for the concentration for half-maximal inhibition (IC50) (in the test on RBL-2H3 cells (Rattus norvegicus); in test [1]) were less than 600 nM and 600 to 1200 nM, respectively. Consider `Cc1cc2cn(C)nc2cc1-c1ccc(C(=O)Nc2c(F)cccc2F)s1` [Example 15], for which the IC50 in test [1] lay in the range of 600 to 1200 nM.

For `Cc1nc(-c2cc(-c3ccc(C(=O)Nc4c(F)cccc4F)s3)n(C)n2)no1` [Example 16, N-(2,6-difluorophenyl){5-[1-methyl-3-(5-methyl(1,2,4-oxadiazol-3-yl))pyrazol-5-yl](2-thienyl)}carboxamide], the IC50 in test [1] lay in the range of 600 to 1200 nM. On to `Cc1nc(-c2cc(-c3ccc(C(=O)Nc4ccccc4F)s3)n(C)n2)no1` [Example 17, N-(2-fluorophenyl){5-[1-methyl-3-(5-methyl(1,2,4-oxadiazol-3-yl))pyrazol-5-yl](2-thienyl)}carboxamide], for which the IC50 is less than 600 nM in the test with RBL-2H3 cells (Rattus norvegicus) and 600 to 1200 nM in test [1]. As for `Cc1nc(-c2cc(-c3cnc(NC(=O)c4ccccc4Cl)s3)n(C)n2)no1` [Example 18, (2-chlorophenyl)-N-{5-[1-methyl-3-(5-methyl(1,2,4,-oxadiazol-3-yl))pyrazol-5-yl](1,3-thiazol-2-yl)}carboxamide], the IC50 in test [1] is more than 1200 nM. In the case of `Cn1c(-c2cnc(NC(=O)c3ccccc3Cl)s2)cc2ccccc21` [Example 22, (2-chlorophenyl)-N-[5-(1-methylindol-2-yl)(1,3-thiazol-2-yl)]carboxamide], the IC50 in the test on RBL-2H3 cells (Rattus norvegicus) is less than 600 nM; in test [1], more than 1200 nM. In the same order, the values of `CC(C)n1nc(C(F)(F)F)cc1-c1cnc(NC(=O)c2ccccc2Cl)s1` [Example 25, (2-chlorophenyl)-N-{5-[1-(methylethyl)-3-(trifluoromethyl)pyrazol-5-yl](1,3-thiazol-2-yl)}carboxamide] are 600 to 1200 nM and more than 1200 nM. Consider `Cc1cccnc1C(=O)Nc1ncc(-c2cc(C(F)(F)F)nn2C)s1` [Example 26, (3-methyl(2-pyridyl))-N-{5-[1-methyl-3-(trifluoromethyl)pyrazol-5-yl](1,3-thiazol-2-yl)}carboxamide], for which, in the test on RBL-2H3 cells, the 50% inhibitory concentration (IC50) is less than 600 nM. In addition, the “FLIPR_CRAC: 9 point CRC: O1S1_JR251: efficacy” value in test [1] was less than 50% efficacy. `Cn1nc(C(F)(F)F)cc1-c1ncc(NC(=O)c2ccccc2Cl)s1` [Example 29, (2-chlorophenyl)-N-{2-[1-methyl-3-(trifluoromethyl)pyrazol-5-yl](1,3-thiazol-5-yl)}carboxamide]: the IC50 (with RBL-2H3 cells (Rattus norvegicus); in test [1]) was more than 1200 nM in each case. As to `Cn1nc(C(F)(F)F)cc1-c1sc(C(=O)Nc2c(F)cccc2F)cc1N` [Example 30, {4-Amino-5-[1-methyl-3-(trifluoromethyl)pyrazol-5-yl](2-thienyl)}-N-(2,6-difluorophenyl)carboxamide], the half-inhibitory concentration (IC50) in test [1] was more than 1200 nM. With `Cn1nc(-c2ccccc2)cc1-c1ccc(C(=O)Nc2ncccc2F)s1` [Example 45], the IC50 (in the test with RBL-2H3 cells (Rattus norvegicus); in test [1]) was 600 to 1200 nM in each case. Consider `Cn1nc(-c2nccs2)cc1-c1ccc(C(=O)Nc2c(F)cccc2F)s1` [Example 49, (2,6-difluorophenyl)[5-(1-methyl-3-(1,3-thiazol-2-yl)pyrazol-5-yl](2-thienyl)]carboxamide], for which the IC50 (in the test on RBL-2H3 cells (Rattus norvegicus); in test [1]) was less than 600 nM in each case. For the molecule `Cn1nc(-c2nccs2)cc1-c1ccc(C(=O)Nc2c(F)cncc2F)s1` [Example 50], the IC50 in the test with RBL-2H3 cells (Rattus norvegicus) was less than 600 nM; in test [1], 600 to 1200 nM. The matching figures for `Cn1nc(-c2nccs2)cc1-c1ccc(C(=O)Nc2ncccc2F)s1` [Example 52]: 600 to 1200 nM and 600 to 1200 nM. Consider `Cn1nc(-c2cccs2)cc1-c1ccc(C(=O)Nc2c(F)cccc2F)s1` [Example 63, N-(2,6-difluorophenyl)[5-(1-methyl-3-(2-thienyl)pyrazol-5-yl](2-thienyl)]carboxamide], for which, in test [1], the IC50 is more than 1200 nM.

With `Cn1nc(-c2cccs2)cc1-c1ccc(C(=O)Nc2ccccc2Cl)s1` [Example 65], the IC50 in test [1] was more than 1200 nM. Take `Cn1nc(C(F)(F)F)cc1-c1ccc(NC(=O)c2ccccc2F)s1` [Example 71, (2-fluorophenyl)-N-{5-[1-methyl-3-(trifluoromethyl)pyrazol-5-yl](2-thienyl)}carboxamide]: the IC50 (in the test with RBL-2H3 cells (Rattus norvegicus); in test [1]) was less than 600 nM each time.

Turning to `Cn1nc(C(F)(F)F)cc1-c1cnc(NC(=O)c2ccc(Cl)cc2)s1` [Example 73], the IC50 (in the test on RBL-2H3 cells (Rattus norvegicus); in test [1]) was 600 to 1200 nM each time. As to `Cn1nc(C(F)(F)F)cc1-c1ccc(NC(=O)c2ccncc2F)s1` [Example 75, (3-fluoro(4-pyridyl))-N-{5-[1-methyl-3-(trifluoromethyl)pyrazol-5-yl](2-thienyl)}carboxamide], the 50% inhibitory concentration (IC50) in the test on RBL-2H3 cells (Rattus norvegicus) was more than 1200 nM. In addition, the “FLIPR_CRAC: 9 point CRC: O1S1_JR251: efficacy” value in test [1] was less than 50% efficacy. Take `Cn1nc(C(F)(F)F)cc1-c1cnc(NC(=O)c2ccncc2F)s1` [Example 76]: the IC50 (with RBL-2H3 cells (Rattus norvegicus); in test [1]) was less than 600 nM each time. Take `Cn1nc(C(F)(F)F)cc1-c1ccc(NC(=O)c2c(F)cncc2F)s1` [Example 77, (3,5-difluoro(4-pyridyl))-N-{5-[1-methyl-3-(trifluoromethyl)pyrazol-5-yl](2-thienyl)}carboxamide]: the IC50 in the test on RBL-2H3 cells (Rattus norvegicus) was less than 600 nM; in test [1], 600 to 1200 nM.

With `Cn1nc(C(F)(F)F)cc1-c1cnc(NC(=O)c2c(F)cncc2F)s1` [Example 78], the figures for the IC50 (with RBL-2H3 cells (Rattus norvegicus); in test [1]) were 600 to 1200 nM and more than 1200 nM, respectively. In the same order, the values of `Cc1cc2c(cc1-c1ccc(NC(=O)c3ccccc3F)s1)OC(F)(F)O2` [Example 79, N-[5-(2,2-difluoro-6-methylbenzo[d]1,3-dioxolen-5-yl)(2-thienyl)](2-fluorophenyl)carboxamide] are 600 to 1200 nM and more than 1200 nM. As for `Cc1cc2c(cc1-c1ccc(NC(=O)c3c(F)cccc3F)s1)OC(F)(F)O2` [Example 80, N-[5-(2,2-difluoro-6-methylbenzo[d]1,3-dioxolen-5-yl)(2-thienyl)](2,6-difluorophenyl)carboxamide], the figures for the IC50 (with RBL-2H3 cells (Rattus norvegicus); in test [1]) were less than 600 nM and more than 1200 nM, respectively.

Regarding `Cc1cc2c(cc1-c1cnc(NC(=O)c3c(F)cncc3F)s1)OC(F)(F)O2` [Example 81, (3,5-difluoro(4-pyridyl))-N-[5-(2,2-difluoro-6-methylbenzo[d]1,3-dioxolen-5-yl)(1,3-thiazol-2-yl)]carboxamide], the IC50 with RBL-2H3 cells (Rattus norvegicus) is less than 600 nM; in test [1], more than 1200 nM. Take “(2,6-difluorophenyl-N-{5-[2-(fluorophenyl)-1-methylpyrazol-5-yl](1,3-thiazol-2-yl)]carboxamide [Example 69]”: the IC50 in the test on RBL-2H3 cells was less than 600 nM; in test [1], 600 to 1200 nM.
